Assays:
[1] = system: A. niger; assay: Evaluation of antibacterial property, minimum inhibitory concentration; assay type: cell-based
Method: (§1) To evaluate an antibacterial property of the solvent compositions for extracting a natural material in examples 2 and 3, and comparative examples 3 and 4, minimum inhibitory concentration (MIC; %) of a total of five microorganisms was measured. A lower minimum inhibitory concentration (%) may denote a more excellent antibacterial property.

[2] = system: P. aeruginosa; assay: as above; assay type: cell-based
Method: as §1

[3] = system: E. coli; assay: as above; assay type: cell-based
Method: as §1

[4] = system: C. albicans; assay: as above; assay type: cell-based
Method: as §1

[5] = system: S. aureus; assay: as above; assay type: cell-based
Method: as §1

[6] = system: skin; assay: Evaluation of skin irritation, patch test (PCPC Safety Evaluation Guidelines, ICDRG standard); assay type: in vivo, human; conditions: patch test on 32 people, 30 wt %
Method: To evaluate skin irritation caused by solvent compositions for extracting a natural material in example 1 and comparative examples 1, 2 and 3, a patch test was conducted on a total of 32 people. The solvent compositions for extracting a natural material in example 1 and comparative examples 1, 2 and 3 were all at a concentration of 30 wt %, and the patch test was performed under the PCPC Safety Evaluation Guidelines and the ICDRG standard.

| SMILES | A. niger (MIC %) [1] | P. aeruginosa (MIC %) [2] | E. coli (MIC %) [3] | C. albicans (MIC %) [4] | S. aureus (MIC %) [5] | Cases with skin irritation [6] | Skin irritation category under ICDRG standard [6] | Skin irritation index 30 minutes [6] | Skin irritation index 24 hours [6] | Skin irritation index 48 hours [6] | Cases with skin irritation ([6]; listed as comparative example 3) |
| --- | --- | --- | --- | --- | --- | --- | --- | --- | --- | --- | --- |
| CC(O)C(C)O (single isomer, unassigned) [Example 2, levo-2,3-butanediol] | 12.5% | 10% | 15% | 12.5% | 25% | – | – | – | – | – | – |
| CC(O)C(C)O (single isomer, unassigned) [Example 3, meso-2,3-butanediol] | 12.5% | 6.25% | 12.5% | 12.5% | 25% | – | – | – | – | – | – |
| OCCCO [Comparative example 2, 1,3-propanediol] | – | – | – | – | – | 0 | no skin irritation | 0.0 | 0.0 | 0.0 | – |
| CC(O)CCO (centres unmarked) [Comparative example 3, 1,3-butanediol] | 12.5% | 12.5% | 17.5% | 12.5% | 25% | 2 | minor skin irritation | 0.5 | 0.0 | 0.0 | two |
| OCCCO [Comparative example 4, 1,3-propanediol] | 25% | 12.5% | 22% | 25% | 25% | – | – | – | – | – | – |
| CC(O)C(C)O (centres unmarked) [Example 1, 2,3-butanediol] | – | – | – | – | – | 0 | no skin irritation | 0.0 | 0.0 | 0.0 | – |
| CC(O)C(C)O (centres unmarked) [compound 1, 2,3-butanediol] | – | – | – | – | – | 0 | no skin irritation | 0.0 | 0.0 | 0.0 | – |
